Data from paper PMC5618334, “Hydrocarbon constrained peptides – understanding preorganisation and binding affinity” (Chemical Science, 2016).
Where a SMILES comes first, the peptide text is derived from it. [ ]: non-standard residue; d: D form. The star is where a group is joined. FITC = O=C1OC2(c3ccc(O)cc3Oc3cc(O)ccc32)c2ccc(NC(=S)*)cc21; Nle = CCCC[C@H](N)C(=O)O; Ahx = NCCCCCC(=O)O

Experiments:
Bcl-xL/BODIPY-BAK = biological target: T1, Bcl-xL/BODIPY-BAK (Homo sapiens, UniProt Q07817, DEL26-81); test: Fluorescence anisotropy competition assay, inhibition of Bcl-xL/BODIPY-BAK interaction; type: binding
T1 construct: pET28a His-SUMO Bcl-xL (1-198, missing 26-81); His-SUMO (N, cleaved yes); made in house; host or cells: E. coli Rosetta 2
T1 sequence (Q07817 with tags, fused parts or gaps DEL26-81): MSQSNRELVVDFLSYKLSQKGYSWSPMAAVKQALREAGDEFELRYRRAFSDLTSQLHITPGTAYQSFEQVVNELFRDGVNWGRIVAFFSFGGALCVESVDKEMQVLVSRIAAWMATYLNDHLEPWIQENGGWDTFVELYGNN
Procedure: (§1) To profile the binding behaviour of the constrained peptides we tested them in both competition displacement assays and direct binding assays. […] Of particular interest was the potential for the introduction of a constraint to have differential effects on protein specificity/selectivity. […] We next tested the constrained peptides in inhibition assays (Fig. 3a and b and Table 2). […]
(§2) constructs were over-expressed in the E. coli strain Rosetta 2. Cells were resuspended in 50mM TRIS pH 8.0, 500mM NaCl, 15mM Imidazole and lysed by sonication. The clarified lysate was applied to a 5ml HisTrap column equilibrated with 50mM TRIS pH 8.0, 500mM NaCl, 15mM Imidazole. The HisTrap was then washed with 10 CV of 50mM TRIS pH 8.0, 500mM NaCl, 15mM Imidazole followed by 10 CV 50mM TRIS pH 8.0, 500mM NaCl, 25mM Imidazole. The fusion proteins were eluted in 50mM TRIS pH 8.0, 500mM NaCl, 300mM Imidazole. TheHis-SUMO tag was removed in overnight in dialysis into 50mM TRIS pH 8.0, 250mM NaCl in the presence of Smt3 protease, Ulp1, overnight at 4°C. Uncleaved material and His-SUMO were removed by reapplication of the sample to a HisTrap in 50mM TRIS pH 8.0, 250mM NaCl and the flow through containing Mcl- […]
(§3) The proteins were then filtered before further purification on a Superdex 75 (GE […]
(§4) proteins were concentrated and stored at -80°C.
(§5) The assays were performed as detailed in 10, 11.
(§6) The buffers used for fluorescence anisotropy were either phosphate buffer (40 mM sodium phosphate, 200 mM sodium chloride, 0.02 mg ml-1 bovine serum albumin, pH 7.50) or Tris buffer (50 mM Tris, 140 mM sodium chloride, pH 7.50). Phosphate buffer was used for all competition assays […]
(§7) Assays were run in 96 or 384 well Optiplates and were scanned using a Perkin Elmer EnVisionTM 2103 MultiLabel plate reader. Fluorescein labelled peptides used an excitation and emission wavelength of 480 (30) nm and 535 (40) nm respectively (dichroic mirror 505 nm) whilst BODIPY labelled peptides used an excitation and emission wavelength of 531 (25) nm and 595 (60) nm respectively (dichroic mirror 555 nm), […]
(§8) Plates were read after 1 h […]
(§9) respectively. Plates were read after 1 h. […]
(§10) Processing of fluorescence anisotropy data
(§11) Fluorescence anisotropy data was processed using Microsoft Excel to calculate intensity, anisotropy […]
(§12) b (λ(rmax − r) + r − rmin) r = anisotropy, I = total intensity, P = perpendicular intensity, S = parallel intensity, Lb = fraction ligand bound, λ = Ibound/Iunbound , G = 1= instrumental factor. […]
(§13) the calculation of IC50 and EC50) or to the Kd model for the extraction of Kd values:
(§14) Where for the logisitic model; y = r = anisotropy, xo = mid-point of the curve between the rmax and rmin […]
(§15) For the Kd model; y = Lb*[FL], K = Kd, [FL] = Concentration of fluorescent ligand.

Bcl-xL = biological target: T2, Bcl-xL (Homo sapiens, UniProt Q07817, DEL26-81); test: Fluorescence anisotropy direct binding assay with Bcl-xL; conditions: for EC50: Bcl-xL titrated into FITC-labelled peptide (25-100 nM), 50 mM tris, 140 mM NaCl, pH 7.50, logistic fit
T2 construct: pET28a His-SUMO Bcl-xL (1-198, missing 26-81); made in house; host or cells: E. coli Rosetta 2
T2 sequence (Q07817 with tags, fused parts or gaps DEL26-81): as above
Procedure: (§16) Direct titration experiments were also performed for FITC labelled BID peptides (Fig. 5). […]
as §2, §3, §4, §5, §6, §7, §8
(§17) respectively. Plates were read after 1 h.
(§18) For all variants of the labelled BID peptides (FITC-BID-WT,FITC-BID-MM, FITC-BID-DM and FITC-BID-Aib), the direct binding assays were performed in Tris Buffer in 384 well plates. In protein titrations, the protein concentration started from between 1-10 µM and was diluted over 24 points in a 3/4 dilution regime, with the concentration of the labelled peptide fixed at 25-100 nM. In the peptide titrations, the concentration of the labelled peptides started from 5 µM and were diluted in a 2/3 regime over 24 points, with the concentration of the protein fixed at 50 nM. Plates were read after 2 hours of incubation, and read again after 4 and 18 hours to ensure complete equilibration.
as §10, §11, §12, §13, §14, §15

Mcl-1 = biological target: T3, Mcl-1 (Homo sapiens, UniProt Q07820); test: Fluorescence anisotropy direct binding assay with Mcl-1
T3 construct: His-SUMO (N, cleaved yes); made in house; host or cells: E. coli Rosetta 2
T3 sequence (Q07820 172-327): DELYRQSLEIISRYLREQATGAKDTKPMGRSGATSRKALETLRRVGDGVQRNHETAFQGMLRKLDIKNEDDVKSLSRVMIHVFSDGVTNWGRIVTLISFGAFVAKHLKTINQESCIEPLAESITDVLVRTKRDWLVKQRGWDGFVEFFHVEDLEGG
Procedure: as §16, §2, §3, §4, §5, §6, §7, §8, §17, §18, §10, §11, §12, §13, §14, §15

Mcl-1/FITC-NOXA-B = biological target: T4, Mcl-1/FITC-NOXA-B (Homo sapiens, UniProt Q07820); test: Fluorescence anisotropy competition assay, inhibition of Mcl-1/FITC-NOXA-B interaction; type: binding; conditions: Table S1, unconstrained BH3 peptides; FA competition; Mcl-1 150 nM, FITC-NOXA-B 50 nM; phosphate buffer pH 7.50; read after 1 h
T4 construct: His-SUMO (N, cleaved yes); made in house; host or cells: E. coli Rosetta 2
T4 sequence (Q07820 172-327): as above
Procedure: as §1, §2, §3, §4, §5, §6, §7, §8, §9, §10, §11, §12, §13, §14, §15

Q: `CCCC[C@H](NC(=O)C(C)(C)NC(=O)[C@H](CC(=O)O)NC(=O)CNC(=O)[C@@H](NC(=O)C(C)(C)NC(=O)[C@H](C)NC(=O)[C@H](CC(C)C)NC(=O)[C@H](Cc1c[nH]cn1)NC(=O)[C@H](CCCNC(=N)N)NC(=O)[C@H](C)NC(=O)[C@@H](NC(=O)[C@H](CC(N)=O)NC(=O)[C@H](CCCNC(=N)N)NC(=O)[C@@H](NC(=O)[C@@H](NC(=O)[C@H](CC(=O)O)NC(=O)[C@H](CCC(=O)O)NC(C)=O)[C@@H](C)CC)[C@@H](C)CC)[C@@H](C)CC)C(C)C)C(=O)N[C@@H](CC(=O)O)C(=O)N[C@@H](CCCNC(=N)N)C(=O)N[C@@H](CO)C(=O)N[C@H](C(=O)N[C@@H](Cc1c[nH]c2ccccc12)C(N)=O)[C@@H](C)CC` [BID-AIB] was tested. Which IC50 (Bcl-xL/BODIPY-BAK) did it give?
A: 1140 ± 50 nM

Q: With `CCCC[C@H](NC(=O)[C@@H]1CCC/C=C\CCC[C@H](NC(=O)[C@H](C)NC(=O)[C@H](CC(C)C)NC(=O)[C@H](Cc2c[nH]cn2)NC(=O)[C@H](CCCNC(=N)N)NC(=O)[C@H](C)NC(=O)[C@@H](NC(=O)[C@H](CC(N)=O)NC(=O)[C@H](CCCNC(=N)N)NC(=O)[C@@H](NC(=O)[C@@H](NC(=O)[C@H](CC(=O)O)NC(=O)[C@H](CCC(=O)O)NC(=O)CCNC(=S)Nc2ccc3c(c2)C(=O)OC32c3ccc(O)cc3Oc3cc(O)ccc32)[C@@H](C)CC)[C@@H](C)CC)[C@@H](C)CC)C(=O)N[C@@H](C(C)C)C(=O)NCC(=O)N[C@@H](CC(=O)O)C(=O)N1)C(=O)N[C@@H](CC(=O)O)C(=O)N[C@@H](CCCNC(=N)N)C(=O)N[C@@H](CO)C(=O)N[C@H](C(=O)N[C@@H](Cc1c[nH]c2ccccc12)C(N)=O)[C@@H](C)CC` [FITC-BID-MM] as the molecule, how does the EC50 (Bcl-xL; FA direct binding) read?
A: 186 ± 24 nM

Q: What about the EC50 (Mcl-1) of the same molecule?
A: 153 ± 12 nM

Q: For `CC[C@H](C)[C@H](NC(C)=O)C(=O)N[C@@H](Cc1c[nH]c2ccccc12)C(=O)N[C@H](C(=O)N[C@@H](C)C(=O)N[C@@H](CCC(N)=O)C(=O)N[C@@H](CCC(=O)O)C(=O)N[C@@H](CC(C)C)C(=O)N[C@@H](CCCNC(=N)N)C(=O)N[C@@]1(C)CCCC=CCCC[C@@](C)(C(=O)N[C@@H](Cc2ccccc2)C(=O)N[C@@H](CC(N)=O)C(=O)N[C@@H](C)C(=O)N[C@@H](Cc2ccc(O)cc2)C(=O)N[C@@H](Cc2ccc(O)cc2)C(=O)N[C@@H](C)C(=O)N[C@@H](CCCNC(=N)N)C(=O)N[C@@H](CCCNC(=N)N)C(N)=O)NC(=O)[C@H](CC(=O)O)NC(=O)CNC(=O)[C@H]([C@@H](C)CC)NC1=O)[C@@H](C)CC` [BIM-DM], which IC50 (Bcl-xL/BODIPY-BAK) is on record?
A: 4000 ± 620 nM

Q: How did the EC50 (Bcl-xL; FA direct binding) turn out when `CCCC[C@H](NC(=O)[C@]1(C)CCCC=CCCC[C@](C)(NC(=O)[C@H](C)NC(=O)[C@H](CC(C)C)NC(=O)[C@H](Cc2c[nH]cn2)NC(=O)[C@H](CCCNC(=N)N)NC(=O)[C@H](C)NC(=O)[C@@H](NC(=O)[C@H](CC(N)=O)NC(=O)[C@H](CCCNC(=N)N)NC(=O)[C@@H](NC(=O)[C@@H](NC(=O)[C@H](CC(=O)O)NC(=O)[C@H](CCC(=O)O)NC(=O)CCNC(=S)Nc2ccc3c(c2)C(=O)OC32c3ccc(O)cc3Oc3cc(O)ccc32)[C@@H](C)CC)[C@@H](C)CC)[C@@H](C)CC)C(=O)N[C@@H](C(C)C)C(=O)NCC(=O)N[C@@H](CC(=O)O)C(=O)N1)C(=O)N[C@@H](CC(=O)O)C(=O)N[C@@H](CCCNC(=N)N)C(=O)N[C@@H](CO)C(=O)N[C@H](C(=O)N[C@@H](Cc1c[nH]c2ccccc12)C(N)=O)[C@@H](C)CC` [FITC-BID-DM] was run?
A: 159 ± 13 nM

Q: What about the EC50 (Mcl-1) of the same molecule?
A: 129 ± 3 nM

Q: For `CCCC[C@H](NC(=O)[C@H](CO)NC(=O)[C@H](CC(=O)O)NC(=O)CNC(=O)[C@@H](NC(=O)[C@H](CCC(N)=O)NC(=O)[C@H](C)NC(=O)[C@H](CC(C)C)NC(=O)[C@H](Cc1c[nH]cn1)NC(=O)[C@H](CCCNC(=N)N)NC(=O)[C@H](C)NC(=O)[C@@H](NC(=O)[C@H](CC(N)=O)NC(=O)[C@H](CCCNC(=N)N)NC(=O)[C@@H](NC(=O)[C@@H](NC(=O)[C@H](CC(=O)O)NC(=O)[C@H](CCC(=O)O)NC(=O)CCCCCNC(=S)Nc1ccc2c(c1)C(=O)OC21c2ccc(O)cc2Oc2cc(O)ccc21)[C@@H](C)CC)[C@@H](C)CC)[C@@H](C)CC)C(C)C)C(=O)N[C@@H](CC(=O)O)C(=O)N[C@@H](CCCNC(=N)N)C(=O)N[C@@H](CO)C(=O)N[C@H](C(=O)N[C@@H](Cc1c[nH]c2ccccc12)C(N)=O)[C@@H](C)CC` [FITC-BID-WT] ({FITC-Ahx}-EDIIRNIARHLAQVGDS[Nle]DRSIW-NH2), which Kd (Bcl-xL) is on record?
A: 21 ± 6.6 nM

Q: And the EC50 (Bcl-xL; FA direct binding)?
A: 79 ± 6 nM

Q: And the EC50 (Mcl-1)?
A: 98 ± 8.9 nM

Q: What about the Kd (Mcl-1) of the same molecule?
A: 50 ± 20 nM

Q: With `CC[C@H](C)[C@H](NC(=O)[C@H](CCCNC(=N)N)NC(=O)[C@H](CCCNC(=N)N)NC(=O)[C@H](CC(C)C)NC(=O)[C@H](CCC(N)=O)NC(=O)[C@H](C)NC(=O)[C@H](CS)NC(=O)[C@H](CCC(=O)O)NC(=O)[C@H](CC(=O)O)NC(=O)[C@H](CCCCN)NC(=O)[C@H](CC(C)C)NC(=O)[C@H](CC(=O)O)NC(=O)[C@H](C)NC(=O)[C@@H]1CCCN1C(=O)CCCCCNC(=S)Nc1ccc2c(c1)C(=O)OC21c2ccc(O)cc2Oc2cc(O)ccc21)C(=O)NCC(=O)N[C@@H](CC(=O)O)C(=O)N[C@@H](CCCCN)C(=O)N[C@H](C(=O)N[C@@H](CC(N)=O)C(=O)N[C@@H](CC(C)C)C(N)=O)C(C)C` [FITC-NOXA-B] as the molecule, how does the “Bcl-xL Kd” value (Bcl-xL; FA direct binding, labelled unconstrained BH3 peptide, Kd model (Table S1), phosphate buffer for BODIPY-BAK and FITC-NOXA-B, Tris buffer for FITC-BID) read?
A: no binding

Q: And the Kd (Mcl-1)?
A: 18.7 ± 0.9 nM

Q: Which IC50 (Bcl-xL/BODIPY-BAK) does the source give for “Ac-LWAAQRYGRELRRMSDEFEGSFDKL-NH2 [BAD, reference compound]” here?
A: 140 ± 15 nM

Q: And the “Mcl-1/ FITC-NOXA-B IC50” value (Mcl-1/FITC-NOXA-B)?
A: no inhibition
